Experimental data reported in patent publication EP4095134A1, “POLYCYCLIC COMPOUNDS FOR THE TREATMENT OF NEUROLOGICAL INDICATIONS” (UCL Business Ltd, priority 2021, dated 2022).

Target: T1, P2Y1 receptor (Homo sapiens, UniProt P47900)
T1 construct: expressed in transfected cells
Experiment: P2Y1 IP1 accumulation HTRF assay, antagonism of agonist MRS2365 in stably transfected cells
Type: cell-based
Conditions: at maximum tested concentration of 10000 nM; full dose-response curve not generated
Outline: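 HTRF IP1 accumulation in stably P2Y1-overexpressing cells, plated the day before. Compounds pre-incubated 1 hour (10-point semi-log curve from 10µM, 0.1% DMSO), then 5nM MRS2365 added for 60 minutes, both at 37°C / 5% CO2. IP1 interpolated from standard curve; IC50 from N ≥ 4 runs.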

T1 sequence (P47900 whole entry): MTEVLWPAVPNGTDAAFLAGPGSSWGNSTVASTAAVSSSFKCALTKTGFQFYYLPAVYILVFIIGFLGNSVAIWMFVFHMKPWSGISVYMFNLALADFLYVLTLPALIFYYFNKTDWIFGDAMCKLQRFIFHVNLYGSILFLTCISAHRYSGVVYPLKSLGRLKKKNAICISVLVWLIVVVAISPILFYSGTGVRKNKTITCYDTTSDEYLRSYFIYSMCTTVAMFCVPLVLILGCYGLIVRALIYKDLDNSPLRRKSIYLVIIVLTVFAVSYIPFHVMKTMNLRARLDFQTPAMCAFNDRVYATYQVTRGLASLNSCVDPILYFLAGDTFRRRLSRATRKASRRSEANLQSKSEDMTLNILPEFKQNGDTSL

Compound	inhibition at 10 µM [%]
COc1ccc2nc(Nc3cccnc3Oc3ccc(F)cc3C3(C(F)(F)F)CCO3)[nH]c2n1 (racemic) [S96]	56

Same assay, conditions: racemic; 5nM MRS2365; values rounded to nearest whole number; N >= 4

Compound	IC50 [nM]
Cc1ccc(NC(=O)NC2CC3(C2)CC(F)(F)C3)c(Oc2ccc(F)cc2C2(C(F)(F)F)CCO2)n1 (racemic) [S86, 1-(6,6-difluorospiro[3.3]heptan-2-yl)-3-(2-(4-fluoro-2-(2-(trifluoromethyl)oxetan-2-yl)phenoxy)-6-methylpyridin-3-yl)urea]	6050
O=C(Nc1nc2ccccc2[nH]1)Nc1cccnc1Oc1ccccc1C1(C(F)(F)F)CCO1 (racemic) [S84, 1-(1H-benzo[d]imidazol-2-yl)-3-(2-(2-(2-(trifluoromethyl)oxetan-2-yl)phenoxy)pyridin-3-yl)urea]	4940
Cc1ccc(NC(=O)Nc2ccc(C#N)cc2F)c(Oc2ccc(F)cc2C2(C(F)(F)F)CCO2)n1 (racemic) [S56, 1-(4-cyano-2-fluorophenyl)-3-(2-(4-fluoro-2-(2-(trifluoromethyl)oxetan-2-yl)phenoxy)-6-methylpyridin-3-yl)urea]	587
O=C(Nc1ccccc1)Nc1cccnc1Oc1ccccc1C1(C(F)(F)F)CCO1 (racemic) [S60, 1-phenyl-3-(2-(2-(2-(trifluoromethyl)oxetan-2-yl)phenoxy)pyridin-3-yl)urea]	735
COc1ccc(NC(=O)Nc2cccnc2Oc2ccccc2C2(C(F)(F)F)CCO2)c(F)c1 (racemic) [S51, 1-(2-fluoro-4-methoxyphenyl)-3-(2-(2-(2-(trifluoromethyl)oxetan-2-yl)phenoxy)pyridin-3-yl)urea]	473
Cc1cccc(Oc2ncccc2NC(=O)Nc2ccc(OC(F)(F)F)cc2)c1C1COC1 (racemic) [S88]	1160
O=C(Nc1ccc(Cl)cc1F)Nc1cccnc1Oc1ccccc1C1(C(F)(F)F)CCO1 (racemic) [S29, 1-(4-chloro-2-fluorophenyl)-3-(2-(2-(2-(trifluoromethyl)oxetan-2-yl)phenoxy)pyridin-3-yl)urea]	165
Cc1ccc(NC(=O)Nc2ccc(OC(F)(F)F)cc2F)c(Oc2ccccc2C2(C(F)(F)F)CCN2C)n1 (racemic) [S3]	40
COc1cc(NC(=O)Nc2ccc(C)nc2Oc2ccc(F)cc2C2(C(F)(F)F)CCO2)ccn1 (racemic) [S77, 1-(2-(4-fluoro-2-(2-(trifluoromethyl)oxetan-2-yl)phenoxy)-6-methylpyridin-3-yl)-3-(2-methoxypyridin-4-yl)urea]	3140
N#Cc1ccc(NC(=O)Nc2cccnc2Oc2ccccc2C2(C(F)(F)F)CCO2)c(F)c1 (racemic) [S72, 1-(4-cyano-2-fluorophenyl)-3-(2-(2-(2-(trifluoromethyl)oxetan-2-yl)phenoxy)pyridin-3-yl)urea]	1490
Cc1ccc(NC(=O)Nc2ccc(Cl)c(F)c2)c(Oc2ccccc2C2(C(F)(F)F)CCO2)n1 (racemic) [S17, 1-(4-chloro-3-fluorophenyl)-3-(6-methyl-2-(2-(2-(trifluoromethyl)oxetan-2-yl)phenoxy)pyridin-3-yl)urea]	114
O=C(Nc1ccc(OC(F)(F)F)c(F)c1)Nc1cccnc1Oc1ccccc1C1(C(F)(F)F)CCO1 (racemic) [S23, 1-(3-fluoro-4-(trifluoromethoxy)phenyl)-3-(2-(2-(2-(trifluoromethyl)oxetan-2-yl)phenoxy)pyridin-3-yl)urea]	145
O=C(Nc1ccc(OC(F)(F)F)cn1)Nc1cccnc1Oc1ccccc1C1(C(F)(F)F)CCO1 (racemic) [S50, 1-(5-(trifluoromethoxy)pyridin-2-yl)-3-(2-(2-(2-(trifluoromethyl)oxetan-2-yl)phenoxy)pyridin-3-yl)urea]	465
Fc1ccc(Oc2ncccc2Nc2nc3ccc(OC(F)(F)F)cc3[nH]2)c(C2(C(F)(F)F)CCO2)c1 (racemic) [S121]	1440
O=C(Nc1ccc(OC(F)(F)F)cc1F)Nc1cccnc1Oc1cc(F)ccc1C1(C(F)(F)F)CCO1 (racemic) [S12]	87
[2H]C([2H])([2H])Oc1ccc(NC(=O)Nc2cccnc2Oc2ccccc2C2(C(F)(F)F)CCO2)c(F)c1 (racemic) [S52, 1-(2-fluoro-4-(methoxy-d3)phenyl)-3-(2-(2-(2-(trifluoromethyl)oxetan-2-yl)phenoxy)pyridin-3-yl)urea]	500
CN1CCC1(c1ccccc1Oc1ncccc1NC(=O)Nc1ccc(OC(F)(F)F)cc1)C(F)(F)F (racemic) [S89]	71
Cc1ccc(NC(=O)Nc2ccc(OC(F)(F)F)cc2)c(Oc2ccccc2C2(C(F)(F)F)CCN2C)n1 (racemic) [S6]	50
O=C(Nc1cc2c(cc1F)OCO2)Nc1cccnc1Oc1ccccc1C1(C(F)(F)F)CCO1 (racemic) [S61, 1-(6-fluorobenzo[d][1,3]dioxol-5-yl)-3-(2-(2-(2-(trifluoromethyl)oxetan-2-yl)phenoxy)pyridin-3-yl)urea]	768
O=C(Nc1ccc(OC(F)(F)F)cc1)Nc1cccnc1Oc1cc(F)ccc1C1(C(F)(F)F)CCO1 (racemic) [S31]	168
COc1ncc(NC(=O)Nc2cccnc2Oc2ccc(F)cc2C2(C(F)(F)F)CCO2)cc1F (racemic) [S68, 1-(2-(4-fluoro-2-(2-(trifluoromethyl)oxetan-2-yl)phenoxy)pyridin-3-yl)-3-(5-fluoro-6-methoxypyridin-3-yl)urea]	1330
CN1CCC1(c1ccccc1Oc1ncccc1NC(=O)Nc1ccc(Cl)cc1F)C(F)(F)F (racemic) [S10]	78
O=C(Nc1ccc(OC(F)(F)F)cc1)Nc1ccc(Cl)nc1Oc1ccccc1C1(C(F)(F)F)CCO1 (racemic) [S20, 1-(6-chloro-2-(2-(2-(trifluoromethyl)oxetan-2-yl)phenoxy)pyridin-3-yl)-3-(4-(trifluoromethoxy)phenyl)urea]	125
O=C(Nc1ccc(F)cc1)Nc1cccnc1Oc1ccccc1C1(C(F)(F)F)CCO1 (racemic) [S53, 1-(4-fluorophenyl)-3-(2-(2-(2-(trifluoromethyl)oxetan-2-yl)phenoxy)pyridin-3-yl)urea]	522
COc1ccc(NC(=O)Nc2cccnc2Oc2ccccc2C2(C(F)(F)F)CCO2)cc1F (racemic) [S55, 1-(3-fluoro-4-methoxyphenyl)-3-(2-(2-(2-(trifluoromethyl)oxetan-2-yl)phenoxy)pyridin-3-yl)urea]	560
Cc1ccc(NC(=O)Nc2ccc(Cl)cc2F)c(Oc2ccccc2C2(C(F)(F)F)CCO2)n1 (racemic) [S4, 1-(4-chloro-2-fluorophenyl)-3-(6-methyl-2-(2-(2-(trifluoromethyl)oxetan-2-yl)phenoxy)pyridin-3-yl)urea]	43

Same assay, conditions: single enantiomer; 5nM MRS2365; values rounded to nearest whole number

Compound	IC50 [nM]
CN1CC[C@@]1(c1ccccc1Oc1ncccc1NC(=O)Nc1ccc(OC(F)(F)F)cc1F)C(F)(F)F (single isomer, unassigned) [S98]	26
Cc1ccc(NC(=O)Nc2ccc(OC(F)(F)F)cc2F)c(Oc2ccccc2[C@]2(C(F)(F)F)CCO2)n1 (racemic) [S104]	68
CN1CC[C@]1(c1ccccc1Oc1ncccc1NC(=O)Nc1ccc(OC(F)(F)F)cc1)C(F)(F)F (racemic) [S105]	77
Cc1ccc(NC(=O)Nc2ccc(Cl)cc2F)c(Oc2ccccc2[C@@]2(C(F)(F)F)CCO2)n1 [S114]	41
CN1CC[C@@]1(c1ccccc1Oc1ncccc1NC(=O)Nc1ccc(OC(F)(F)F)cc1)C(F)(F)F [S115]	39
O=C(Nc1ccc(OC(F)(F)F)cc1)Nc1cccnc1Oc1ccccc1[C@@]1(C(F)(F)F)CCO1 [S110]	68
